According to patent US10688084B2 (priority 2016, dated 2020):
Where two headings read alike, the source gives them in different places.

How the values were obtained:
Wistar rats [1] = details: for Number of animals in the group/number of dead animals / LD10 / LD16 / LD84: rat; for Number of animals in the group/number of dead animals: 14 days; for LD10 / LD16 / LD84: intragastric
Procedure: The experiment was performed according to the fixed dose method in Wistar rats of both sexes, 6 animals per group. […] The solvent used was a 0.5% Tween-80 solution (Tween 80—polyoxyethylene, a derivative of sorbitan and oleic acid, a commercially available polymer), which was prepared by dissolving 0.5 g of Tween-80 in 100 ml of distilled water.
The introduction was carried out to animals deprived of food (for a period of not less than 8 hours) with free access to water. The volume of administration was calculated individually for each animal, based on the body mass recorded immediately before the introduction of the substance. Access to the feed was renewed an hour after the introduction. Animals were observed individually after administration for 30 minutes, then at least once per hour for 4 hours, then daily once a day for 14 days. Body mass was recorded immediately before the administration of the preparation to calculate the volume of administration, then once every two days. If the animal died during the study, the time of death was determined and documented as accurately as possible. The animal was weighed and dissected as soon as possible. Dying animals were weighed, euthanized and dissected. Animals were euthanized by inhalation of carbon dioxide. Toxic doses LD10, LD16, LD50 and LD84 were calculated using probit analysis with IBM SPSS Statistics software.
At the end of the experiment, euthanasia and pathomorphological dissection of control and experimental animals were performed.

Wistar rats [2] = test: Gastric toxicity (ulcerogenic effect), single intragastric administration, 4-point scale; type: in vivo, rat; details: for Gastrotoxic effect (averaged), points: 2000 mg/kg single intragastric, 3 hours
Procedure: In the study of gastric toxicity were taken female and male Wistar rats aged 6-7 weeks, with a body mass of 180-220 g. The number of animals in each group was 10.
Three hours after the administration of the suspension of the test substance at a dose of 2000 mg/kg (in 0.5% aqueous solution of Tween-80), the animals were euthanized; their stomachs were removed, dissected along the lesser curvature, and washed in physiological solution to remove the contents.
Evaluation of gastric toxicity was performed on a 4-point scale:
1—single minor injuries (1 or 2 point hemorrhages);
2—multiple injuries (erosion, spot hemorrhages);
3—significant and multiple injuries of the mucosa (erosion, hemorrhage);
4—gross injuries covering the entire surface of the mucosa (massive hemorrhages, erosion, perforations).
According to the results of the assessment, UD50 was determined—the dose of the tested substance causing gastrotoxic (ulcerogenic) effect corresponding to 2 points.
The introduction to rats is carried out in the amount of no more than 5 ml/200 g.
Animals were euthanized by carbon dioxide inhalation method.
At a single introduction of formula I compound at a dose of 2000 mg/kg, the gastrotoxic effect corresponded to an average of 0.6 points in male rats and 0.4 in females (Table 4).

Wistar rats [3] = type: in vivo
Procedure: In the study of analgesic properties of the formula I compound, were taken female and male Wistar rats aged 6-7 weeks with a body mass of 180-220 g. The number of animals in each group was 10.
[…] inflammation was modeled in rats by subplantar administration of 0.1 ml of a 1% solution of carrageenin (a sulfated polysaccharide from Irish sea moss) into the right hind paw. The substance was administered intragastrically using a gastric probe.
Inflammatory hyperalgesia (increased pain sensitivity of inflamed tissues in rats) was caused by carrageenin and was assessed by decrease of the pain sensitivity threshold—PST (by PST difference) to mechanical irritation (squeezing) of the paw tissue of the animal before the introduction of carrageenin and 3 hours after it. The measurement was performed on the inflamed paw. Used analgesimeter Ugo Basile S.R.L. (Italy) provides a gradual increased afterload on the rat's inflamed paw until a pain reaction appears (assessed by squeaking of animal or withdrawing the paw). The analyte was administered 2 h after carrageenin administration. […] An increase in the pain response threshold under the influence of the substances under study was expressed in an increase in the force of compression of the limb and characterized the intensity of the analgesic effect of the preparation. After the experiment, animals were euthanized by carbon dioxide inhalation method.
The introduction to rats was carried out in the amount of no more than 1 ml/100 g. The concentration of the resulting solution was 5 mg/ml.
To prepare a dose of 20 mg/kg, 40 ml of solution with a concentration of 5 mg/ml (50 mg/kg) were taken, transferred to a 100 ml measuring flask with accuracy class A, adjusted to 100 ml with 0.5% water solution of Tween-80 and the suspension was dispersed to a homogeneous consistency using a dispersant.
To prepare a dose of 10 mg/kg, 20 ml of solution with a concentration of 5 mg/ml (50 mg/kg) were taken, transferred to a 100 ml measuring flask with accuracy class A, adjusted to 100 ml with 0.5% aqueous solution of Tween-80 and the suspension was stirred to a homogeneous consistency with a magnetic stirrer MR Hei-Standard (Heidolph, Germany).
To prepare a dose of 5 mg/kg, […] of solution with a concentration of 5 mg/ml (50 mg/kg) were taken, transferred to a 100 ml measuring flask with accuracy class A, adjusted to 100 ml with 0.5% water solution of Tween-80 and the suspension was stirred to a homogeneous consistency with a magnetic stirrer.

COc1ccc2cc([C@H](C)C(=O)OCc3cnc(C)c(OC(=O)[C@@H](C)c4ccc5cc(OC)ccc5c4)c3COC(=O)[C@@H](C)c3ccc4cc(OC)ccc4c3)ccc2c1 [Compound of formula I, 3-((S)-2-(6-methoxynaphth-2-yl)propanoiloxy)-4,5-bis (((S)-2-(6-methoxinaphtht-2-yl)propanoiloxy)methyl)-2-methylpyridinium (S)-2-(6-methoxynaphth-2-yl) propanoate]
Dead animals (Wistar rats [1]; 5000 mg/kg intragastric, female, three days later): 1 rat
Clinical observation after administration (Wistar rats [1]; 5000 mg/kg intragastric, symptom disappeared in 20-30 minutes): slight inhibition of the activity of the animal
Body mass increase (Wistar rats [1]; 5000 mg/kg, 2 days after start): 1-4%
Body mass increase (Wistar rats [1]; 5000 mg/kg, 4 days after start): 2-6%
Body mass increase (Wistar rats [1]; 5000 mg/kg, eighth day): 2-8%
Autopsy findings (Wistar rats [1]; 5000 mg/kg, end of experiment): No changes were observed
Body mass increase (Wistar rats [1]; 5000 mg/kg, end of the experiment): 5-13%
Hazard class (GOST 12.1.007-76) (Wistar rats [1]; intragastric administration): 4th hazard class
Number of animals in the group/number of dead animals (Wistar rats [1]; females, 5000 mg/kg intragastric): 6/1
LD10 (Wistar rats [1]; females): >5000
LD16 (Wistar rats [1]; females): >5000
LD84 (Wistar rats [1]; females): >5000
Number of animals in the group/number of dead animals (Wistar rats [1]; males, 5000 mg/kg intragastric): 6/0
LD10 (Wistar rats [1]; males): >5000
LD16 (Wistar rats [1]; males): >5000
LD84 (Wistar rats [1]; males): >5000
UD50 (Wistar rats [2]; females): >2000 mg/kg
Gastrotoxic effect (averaged), points (Wistar rats [2]; females): 0.4 points
UD50 (Wistar rats [2]; males): >2000 mg/kg
Gastrotoxic effect (averaged), points (Wistar rats [2]; males): 0.6 points
Times less gastrotoxic than naproxen (UD50) (Wistar rats [2]; vs naproxen): 40 times
UD50 (Wistar rats [2]; without sex distinction): >2000 mg/kg
UD50 (Wistar rats [2]; without sex distinction, listed as compound of formula I): > 2000 mg/kg
Analgesic effect, total/analgesic effect (Wistar rats [3]; females, 5 mg/kg): 10/9
Paw volume 0 hours (Wistar rats [3]; females, 5 mg/kg): 3.9 ± 1.4
Paw volume 3 hours (Wistar rats [3]; females, 5 mg/kg): 7.2 ± 3.2
Analgesic effect, % (Wistar rats [3]; females, 5 mg/kg, control = 100.0): 282.0 ± 125.9%
Analgesic effect, total/analgesic effect (Wistar rats [3]; females, 10 mg/kg): 10/8
Paw volume 0 hours (Wistar rats [3]; females, 10 mg/kg): 4.3 ± 2.2
Paw volume 3 hours (Wistar rats [3]; females, 10 mg/kg): 10.5 ± 7.2
Analgesic effect, % (Wistar rats [3]; females, 10 mg/kg, control = 100.0): 408.2 ± 279.3%
Analgesic effect, total/analgesic effect (Wistar rats [3]; females, 20 mg/kg): 10/9
Paw volume 0 hours (Wistar rats [3]; females, 20 mg/kg): 4.6 ± 3.3
Paw volume 3 hours (Wistar rats [3]; females, 20 mg/kg): 9.1 ± 7.4
Analgesic effect, % (Wistar rats [3]; females, 20 mg/kg, control = 100.0): 353.5 ± 289.7%
Analgesic effect, total/analgesic effect (Wistar rats [3]; females, 50 mg/kg): 10/7
Paw volume 0 hours (Wistar rats [3]; females, 50 mg/kg): 8.9 ± 5.7
Paw volume 3 hours (Wistar rats [3]; females, 50 mg/kg): 12.4 ± 6.5
Analgesic effect, % (Wistar rats [3]; females, 50 mg/kg, control = 100.0): 484.4 ± 251.8%
Dose at which a pronounced anesthetic effect is exhibited (Wistar rats [3]; intragastric): 5 mg/kg
Analgesic effect, total/analgesic effect (Wistar rats [3]; males, 5 mg/kg): 10/7
Analgesic effect, total/analgesic effect (Wistar rats [3]; males, 10 mg/kg): 10/10
Analgesic effect, total/analgesic effect (Wistar rats [3]; males, 20 mg/kg): 10/9
Analgesic effect, total/analgesic effect (Wistar rats [3]; males, 50 mg/kg): 10/8
Analgesic effect, % (Wistar rats [3]; rat, in vivo, 5 mg/kg): 259.9 ± 229.7%
Paw volume 0 hours (Wistar rats [3]; rat, in vivo, 5 mg/kg): 4.4 ± 2.7
Paw volume 3 hours (Wistar rats [3]; rat, in vivo, 5 mg/kg): 5.5 ± 2.5
Analgesic effect, % (Wistar rats [3]; rat, in vivo, 10 mg/kg): 453.7 ± 159.9%
Paw volume 0 hours (Wistar rats [3]; rat, in vivo, 10 mg/kg): 4.2 ± 2.4
Paw volume 3 hours (Wistar rats [3]; rat, in vivo, 10 mg/kg): 12.0 ± 4.6
Analgesic effect, % (Wistar rats [3]; rat, in vivo, 20 mg/kg): 418.1 ± 215.7%
Paw volume 0 hours (Wistar rats [3]; rat, in vivo, 20 mg/kg): 6.4 ± 5.7
Paw volume 3 hours (Wistar rats [3]; rat, in vivo, 20 mg/kg): 12.0 ± 6.2
Analgesic effect, % (Wistar rats [3]; rat, in vivo, 50 mg/kg): 367.9 ± 220.1%
Paw volume 0 hours (Wistar rats [3]; rat, in vivo, 50 mg/kg): 3.4 ± 2.3
Paw volume 3 hours (Wistar rats [3]; rat, in vivo, 50 mg/kg): 10.6 ± 6.3
